From patent publication US20240090503A1, “FUNGICIDAL OXADIAZOLES AND THEIR MIXTURES” (FMC CORPORATION, priority 2020, published 2024)
Marks after values point to notes of the source that are not given here.

Key:
Type in all cases: in vivo
[1] = test system: Phakopsora pachyrhizi (the causal agent of Asian soybean rust); assay: Test A: preventive spray on soybean seedlings, Asian soybean rust, visual disease rating; conditions: soybean seedlings
Procedure, shortened: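 Compound in acetone/water (50/50) with 250 ppm PEG400 sprayed to run-off on soybean seedlings; inoculated next day with Phakopsora pachyrhizi spores. Held 24 h at 22° C in saturated atmosphere, then 8 days in a 22° C growth chamber before visual rating as % disease control relative to controls.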

[2] = test system: Zymoseptoria tritici (the causal agent of wheat leaf blotch); assay: Test B: preventive spray on wheat seedlings, wheat leaf blotch, visual disease rating; conditions: wheat seedlings
Procedure, shortened: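 This is a preventive test: spray application preceded Zymoseptoria tritici spore inoculation by one day. Test suspensions were in acetone/water with 250 ppm PEG400 surfactant, at the listed ppm rate. After 48 h saturated humidity at 24° C and 17 days at 20° C, visual ratings scored control from 0 to 100%.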

[3] = test system: Puccinia recondita f. sp. tritici (the causal agent of wheat leaf rust); assay: Test C: preventive spray on wheat seedlings, wheat leaf rust, visual disease rating; conditions: wheat seedlings
Procedure, shortened: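 Wheat seedlings sprayed to run-off with compound in acetone/water (50/50) with 250 ppm PEG400, then inoculated with spores the following day. After 24 h saturated humidity at 20° C. and 6 days in growth chamber at 20° C., disease rated visually as % control relative to untreated controls.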

[4] = test suspension 10 ppm, 100 = 100% disease control, 0 = no control
[5] = 10 ppm test suspension, 100 = 100% disease control, 0 = no control
[6] = 250 ppm test suspension, 100 = 100% disease control

O=C(c1coc(Cc2ccc(-c3noc(C(F)(F)F)n3)cc2)n1)N1CCC(F)(F)CC1 [compound 228]
Test A disease control rating [1, 4]: 100%
Test B disease control rating ([2]; test suspension 250 ppm): 99* %
Test C disease control rating ([3]; test suspension 10 ppm): 79%

O=C(O)c1csc(Cc2ccc(-c3noc(C(F)(F)F)n3)cc2)n1 [compound 345]
Test A disease control rating [1, 4]: 96%
Test B disease control rating ([2]; test suspension 250 ppm): 50* %
Test C disease control rating ([3]; test suspension 10 ppm): 68%

N#Cc1ccn(Cc2ccc(-c3noc(C(F)(F)F)n3)cc2)c(=O)c1 [compound 89]
Test A disease control rating ([1]; test suspension 250 ppm): 100%
Test B disease control rating ([2]; test suspension 250 ppm): 83%
Test C disease control rating ([3]; test suspension 250 ppm): 100%

O=C(c1csc(Cc2ccc(-c3noc(C(F)(F)F)n3)cc2)n1)N1CCOCC1 [compound 487]
Test A disease control rating [1, 5]: 100%
Test B disease control rating ([2]; 100 ppm test suspension (double asterisk), 100 = 100% disease control): 98** %
Test C disease control rating [3, 5]: 100%

CC(C)(C)NN1C(=O)C(Cl)=C(Oc2ccc(-c3noc(C(F)(F)F)n3)cc2)C1=O [compound 357]
Test A disease control rating ([1]; test suspension 250 ppm): 98%
Test B disease control rating ([2]; test suspension 250 ppm): 99* %
Test C disease control rating ([3]; test suspension 250 ppm): 91%

O=C(C1=NOC(Cc2ccc(-c3noc(C(F)(F)F)n3)cc2)C1)N1CCC1 (stereo not drawn) [compound 177]
Test A disease control rating ([1]; test suspension 250 ppm): 100%
Test B disease control rating ([2]; test suspension 250 ppm): 97%
Test C disease control rating ([3]; test suspension 250 ppm): 100%

O=C(O)c1coc(Cc2ccc(-c3noc(C(F)(F)F)n3)cc2)n1 [compound 253]
Test A disease control rating [1, 4]: 98%
Test B disease control rating ([2]; test suspension 250 ppm): 46* %
Test C disease control rating ([3]; test suspension 10 ppm): 74%

O=C1CCCN1Cc1ccc(-c2noc(C(F)(F)F)n2)cc1 [compound 371]
Test A disease control rating ([1]; test suspension 250 ppm): 100%
Test B disease control rating ([2]; test suspension 250 ppm): 95* %
Test C disease control rating ([3]; test suspension 250 ppm): 100%

FC(F)(F)c1nc(-c2ccc(Cn3ncc4cc(Br)ccc43)cc2)no1 [compound 128]
Test A disease control rating ([1]; test suspension 255 ppm): 100%
Test B disease control rating ([2]; test suspension 255 ppm): 19%
Test C disease control rating ([3]; test suspension 255 ppm): 100%

FC(F)(F)c1nc(-c2ccc(Cn3cc(Br)c(-c4ccccc4Cl)n3)cc2)no1 [compound 146]
Test A disease control rating ([1]; test suspension 250 ppm): 100%
Test B disease control rating ([2]; test suspension 250 ppm): 0%
Test C disease control rating ([3]; test suspension 250 ppm): 0%

CCOC(=O)c1nn(Cc2ccc(-c3noc(C(F)(F)F)n3)cc2)c2ccccc12 [compound 117]
Test A disease control rating ([1]; test suspension 255 ppm): 88%
Test B disease control rating ([2]; test suspension 255 ppm): 0%
Test C disease control rating ([3]; test suspension 255 ppm): 41%

CN(C)C(=O)c1cc(COc2ccc(-c3noc(C(F)(F)F)n3)cc2)on1 [compound 314]
Test A disease control rating [1, 4]: 99%
Test B disease control rating ([2]; test suspension 250 ppm): 86* %
Test C disease control rating ([3]; test suspension 10 ppm): 0%

O=C(NCCC(F)(F)F)c1csc(COc2ccc(-c3noc(C(F)(F)F)n3)cc2)n1 [compound 472]
Test A disease control rating [1, 5]: 77%
Test B disease control rating [2, 6]: 22* %
Test C disease control rating [3, 5]: 0%

FC(F)(F)c1nc(-c2cnn(CCCn3cc(-c4noc(C(F)(F)F)n4)cn3)c2)no1 [compound 326]
Test A disease control rating ([1]; test suspension 250 ppm): 84%
Test B disease control rating ([2]; test suspension 250 ppm): 1* %
Test C disease control rating ([3]; test suspension 250 ppm): 67%

Cc1noc(C)c1COc1ccc(-c2noc(C(F)(F)F)n2)cc1 [compound 338]
Test A disease control rating [1, 4]: 99%
Test B disease control rating ([2]; test suspension 250 ppm): 10* %
Test C disease control rating ([3]; test suspension 10 ppm): 0%

CCNC(=O)c1ccc(COc2ccc(-c3noc(C(F)(F)F)n3)cc2)s1 [compound 352]
Test A disease control rating [1, 4]: 87%
Test B disease control rating ([2]; test suspension 250 ppm): 0* %
Test C disease control rating ([3]; test suspension 10 ppm): 68%

CCCOC(=O)c1cnn(Cc2ccc(-c3noc(C(F)(F)F)n3)s2)c1 [Compound 198, propyl 1-[[5-[5-(trifluoromethyl)-1,2,4-oxadiazol-3-yl]-2-thienyl]methyl]-1H-pyrazole-4-carboxylate]
pest or weed control at 10 µg/mL ([1]; Phakopsora pachyrhizi, 216 h, test suspension 10 ppm, 100 = 100% disease control, 0 = no control, read-out: Test A disease control rating): 100%
pest or weed control at 100 µg/mL ([2]; Zymoseptoria tritici, 456 h, test suspension 100 ppm (** next to rating), read-out: Test B disease control rating): 94%
pest or weed control at 10 µg/mL ([3]; Puccinia recondita, 168 h, test suspension 10 ppm, read-out: Test C disease control rating): 99%

O=C(NCCn1cccn1)c1csc(Cc2ccc(-c3noc(C(F)(F)F)n3)cc2)n1 [compound 396]
Test A disease control rating [1, 5]: 100%
Test B disease control rating [2, 6]: 28* %
Test C disease control rating [3, 5]: 100%

O=S1(=O)CCCN1Cc1ccc(-c2noc(C(F)(F)F)n2)s1 [compound 324]
Test A disease control rating ([1]; test suspension 250 ppm): 100%
Test B disease control rating ([2]; test suspension 250 ppm): 80* %
Test C disease control rating ([3]; test suspension 250 ppm): 100%

COC(=O)c1coc(Cc2ccc(-c3noc(C(F)(F)F)n3)cc2)c1 [compound 456]
Test A disease control rating [1, 5]: 100%
Test B disease control rating [2, 6]: 65* %
Test C disease control rating [3, 5]: 68%

FC(F)(F)c1nc(-c2ccc(Cn3nc(Cl)c4ccccc43)cc2)no1 [compound 116]
Test A disease control rating ([1]; test suspension 265 ppm): 100%
Test B disease control rating ([2]; test suspension 265 ppm): 25%
Test C disease control rating ([3]; test suspension 265 ppm): 99%

CON=C(CCl)COC(=O)c1cnn(Cc2ccc(-c3noc(C(F)(F)F)n3)cc2)c1 [compound 494]
Test A disease control rating [1, 5]: 100%
Test B disease control rating [2, 6]: 47* %
Test C disease control rating [3, 5]: 0%

CCOC(=O)c1cnn(Cc2ccc(-c3noc(C(F)(F)F)n3)cc2)c1 [Compound 83, ethyl 1-[[4-[5-(trifluoromethyl)-1,2,4-oxadiazol-3-yl]phenyl]methyl]-1H-pyrazole-4-carboxylate]
pest or weed control at 250 µg/mL ([1]; Phakopsora pachyrhizi, 216 h, test suspension 250 ppm): 100%
pest or weed control at 250 µg/mL ([2]; Zymoseptoria tritici, 456 h, test suspension 250 ppm): 79%
pest or weed control at 250 µg/mL ([3]; Puccinia recondita, 168 h, test suspension 250 ppm): 100%

CN(C)C(=O)C1=NOC(Cc2ccc(-c3noc(C(F)(F)F)n3)cc2)C1 (stereo not drawn) [Compound 12, 4,5-dihydro-N,N-dimethyl-5-[[4-[5-(trifluoromethyl)-1,2,4-oxadiazol-3-yl]phenyl]methyl]-3-isoxazolecarboxamide]
pest or weed control at 255 µg/mL ([1]; Phakopsora pachyrhizi, 216 h, test suspension 255 ppm): 100%
pest or weed control at 255 µg/mL ([2]; Zymoseptoria tritici, 456 h, test suspension 255 ppm): 98%
pest or weed control at 255 µg/mL ([3]; Puccinia recondita, 168 h, test suspension 255 ppm): 100%

COC(=O)c1nncn1Cc1ccc(-c2noc(C(F)(F)F)n2)cc1 [compound 138]
Test A disease control rating ([1]; test suspension 260 ppm): 100%
Test B disease control rating ([2]; test suspension 260 ppm): 96%
Test C disease control rating ([3]; test suspension 260 ppm): 100%

FC(F)(F)c1nc(-c2ccc(Cn3ncc4ccccc43)cc2)no1 [compound 143]
Test A disease control rating ([1]; test suspension 250 ppm): 100%
Test B disease control rating ([2]; test suspension 250 ppm): 71%
Test C disease control rating ([3]; test suspension 250 ppm): 100%

FC(F)(F)c1nc(-c2ccc(Cn3ccc(-c4ccccc4)n3)cc2)no1 [Compound 85]
Test A disease control rating ([1]; test suspension 50 ppm): 100*** %
Test B disease control rating ([2]; test suspension 250 ppm): 9%
Test C disease control rating ([3]; test suspension 250 ppm): 100%

FC(F)(F)c1cc(C(F)(F)F)n(Cc2ccc(-c3noc(C(F)(F)F)n3)cc2)n1 [compound 144]
Test A disease control rating ([1]; test suspension 250 ppm): 36%
Test B disease control rating ([2]; test suspension 250 ppm): 0%
Test C disease control rating ([3]; test suspension 250 ppm): 0%
